Measured values reported in US12103965B2, “Diagnostic kit” (Phoenix Pharmaceuticals, Inc., priority 2011, dated 2024).
Where no end group is shown, it is not given here.

How the values were obtained:
[1] = test system: rat pituitary adenoma cells, RC-4B/C; type: binding
Description: Also, rat pituitary adenoma cells, RC-4B/C cells, were used in the assay of radioligand binding. For the binding displacement, cells were incubated for 30 min with 50 pM 125I-Y0-Phoenixin-20 (amide SEQ. ID NO: 7) in the absence or presence of increasing concentrations of un-labeled Phoenixin-20 amide (amide SEQ. ID NO: 7) or phoenixin-14 amide (amide SEQ. ID NO: 9). Nonspecific binding was defined as total binding in the presence of 1 μM unlabeled Phoenixin-20 amide (amide SEQ. ID NO: 7) or phoenixin-14 amide (amide SEQ. ID NO: 9). After termination of the binding reaction by washing the cells with 1 ml of cold PBS, cells were solubilized with 0.5 ml of 1% SDS, and radioactivity was detected in a gamma counter.

[2] = test system: rat pituitary adenoma cells, RC-4B/C; assay: cAMP production in pituitary cells (cAMP Biotrak enzyme immunoassay); type: cell-based; details: 100 nM peptide, 30 min, in presence of IBMX; PBS-control 100% = 4.94±0.5 pmol/mg protein
Description: Rat pituitary adenoma cells, RC-4B/C (CRL-1903; ATCC, Manassas, VA, USA), were cultured in Dulbecco's Modified Eagle's Medium and Minimum Essential Alpha Medium (Invitrogen, CA, USA) supplemented with 0.01 mM non-essential amino acids, 15 mM HEPES, 2.5 ng/ml epidermal growth factor, and dialyzed, heat-inactivated fetal bovine serum (“FBS”) at 37° C. in a humidified cell incubator containing 5% carbon dioxide (“CO2”). After 2 days of cell cultured in 24 wells plate, cell were equilibrated for 2 hours in serum-free medium and then incubated with 0.1 mM 3-isobutyl-1-methylxanthine (“IBMX”) in serum-free medium 30 min again. Then, cells were challenged with either 100 nM of […]-NH2 (SEQ. ID NO: 7), DVQPPGLKVWSDPFG (SEQ. ID NO: 3), DVQPPGLKVWSDPF-NH2 (SEQ. ID NO: 9), or a PBS-control in the presence of IBMX and incubated for 30 min. After incubation, supernatant medium was then aspirated and the cells in each well were extracted by 70% cold ethanol. Alcohol was evaporated in a vacuum concentrator (PN: AES 2000, Savant, Hicksvile, NY, USA) Thereafter, cAMP content was determined by using a cAMP Biotrak enzyme immunoassay kit (GE healthcare-Amersham, Piscataway, NJ, USA) in accordance with the protocol of the manufacturer.

[3] = test system: antibodies raised to AGIVQEDVQPPGLKVWSDPF-NH2 (SEQ. ID NO: 7); assay: RIA/EIA cross-reactivity of anti-phoenixin antibodies; type: binding; details: RIA or EIA
Description: Homogenates were prepared from heart tissues of adult rats. The supernatant of the rat heart homogenates were passed through C18 column extraction cartridges and P6 gel filtration to further purify native peptide candidates. The immunoreactive fractions as determined by conventional enzyme immunoassay (“EIA”) in which labeled chemically synthesized peptides as described above compete with unlabeled native phoenixin peptide for a limited quantity of the anti-phoenixin peptide antibodies, produced as above described. The label can be biotin complex which by reaction with streptavidin horseradish peroxidase and sequent reaction of the horseradish peroxidase with colormetric or fluorescence substrates can be quantitated. […]
Homogenates of porcine or bovine or rat tissue of heart, lung, kidney, spinal cord, small intestine, liver, pancreas, hypothalamus, spleen, and thymus were prepared as above-described and the resulting fractions were processed by the above-described peptides extraction procedure and were assayed by radio-immunoassay (“[…]”) or Enzyme Immunoassay (EIA) using antibodies raised to […]-NH2 (SEQ. ID NO: 7). […] Protein concentrations were determined by bicinchoninic acid (“BCA”) protein assay in accordance to the protocol of the manufacturer Thermo Scientific, Rockford, Illinois using bovine serum albumin (“BSA”) as a standard. […]

Substance | IC50 [1] [µM] | increase of intracellular cAMP production over the PBS control [2] | cross-reactive with antibodies raised to SEQ. ID NO: 7 [3]
AGIVQEDVQPPGLKVWSDPF-NH2 [SEQ. ID NO: 7, phoenixin (1-20) amide] | 0.0215 | greater than two fold and even three-fold | 
DVQPPGLKVWSDPF-NH2 [SEQ. ID NO: 9, phoenixin (7-20) amide] | 0.0179 | greater than two fold and even three-fold | 100%
phoenixin (7-21) (DVQPPGLKVWSDPFG; listed as Homo sapiens) [SEQ. ID NO: 3] |  | greater than two fold and even three-fold | less than 0.5%
